Tests used:
E. coli UBMS 89-1 Tet M = experiment: microbe, parasite or virus in culture; assay type: cell-based; settings: E. coli UBMS 89-1 Tet M
E. coli PRP1 Tet A = experiment: microbe, parasite or virus in culture; assay type: cell-based; settings: E. coli PRP1 Tet A
[1] = test system: tetracycline sensitive and resistant Gram-positive and Gram-negative bacteria; experiment: In vitro antibacterial activity, summary in words of Table I; assay type: cell-based
E. coli UBMS 88-1 Tet B = experiment: microbe, parasite or virus in culture; assay type: cell-based; settings: E. coli UBMS 88-1 Tet B; 18 hours at 35° C.
[2] = test system: S. aureus UBMS 90-2 Tet M; experiment: microbe, parasite or virus in culture; assay type: cell-based; settings: S. aureus UBMS 90-2 Tet M
[3] = test system: Ps. acruginosa ATCC 27853; experiment: MIC, agar dilution; assay type: cell-based; settings: Ps. acruginosa ATCC 27853
[4] = test system: S. aureus UBMS 88-7 Tet K; experiment: microbe, parasite or virus in culture; assay type: cell-based; settings: S. aureus UBMS 88-7 Tet K
S. aureus UBMS 90-3 = experiment: MIC, agar dilution; assay type: cell-based; settings: S. aureus UBMS 90-3
[5] = test system: E. coli UBMS 89-2 Tet sens.; experiment: MIC, agar dilution; assay type: cell-based; settings: E. coli UBMS 89-2 Tet sens.
E. coli UBMS 90-5 = experiment: MIC, agar dilution; assay type: cell-based
S. aureus UBMS 88-4 = experiment: MIC, agar dilution; assay type: cell-based; settings: S. aureus UBMS 88-4
[6] = test system: E. coli MC 4100 TNIOC Tet B; experiment: microbe, parasite or virus in culture; assay type: cell-based; settings: E. coli MC 4100 TNIOC Tet B
E. coli J3272 Tet sens. = experiment: MIC, agar dilution; assay type: cell-based
the ribosome = experiment: Reversibility of binding: bacterial growth resumes after washing; assay type: cell-based; settings: bacterial growth resumes when the compound is removed from the cultures by washing
Source text: Therefore, the ability of these compounds to inhibit bacterial growth appears to be a direct consequence of its ability to inhibit protein synthesis at the ribosome level.

S. aureus SMITH (MP) = experiment: MIC, agar dilution; assay type: cell-based; settings: S. aureus SMITH (MP)
E. coli UBMS 90-4 Tet M = experiment: microbe, parasite or virus in culture; assay type: cell-based; settings: E. coli UBMS 90-4 Tet M
E. coli J3272 Tet D = experiment: microbe, parasite or virus in culture; assay type: cell-based; settings: E. coli J3272 Tet D
[7] = test system: S. aureus UBMS 90-1 Tet M; experiment: microbe, parasite or virus in culture; assay type: cell-based; settings: S. aureus UBMS 90-1 Tet M
[8] = test system: S. hemolyticus AVHAH 88-3; experiment: MIC, agar dilution; assay type: cell-based; settings: S. hemolyticus AVHAH 88-3
[9] = test system: Wild Type S30 (wild type ribosomes, E. coli strain MRE600, tetracycline sensitive); experiment: E. coli in vitro protein translation system, wild type S30
[10] = test system: Staphylococcus aureus strain Smith (tetracycline sensitive); experiment: In vivo antibacterial evaluation, acute lethal infection in mice; settings: animals infected with S. aureus Smith, 10080 min
S. aureus IVES 2943 = experiment: MIC, agar dilution; assay type: cell-based; settings: S. aureus IVES 2943
S. mariescens FPOR 8733 = experiment: MIC, agar dilution; assay type: cell-based
S. aureus ROSE (MP) = experiment: MIC, agar dilution; assay type: cell-based; settings: S. aureus ROSE (MP)
S. aureus IVES 1 983 = experiment: MIC, agar dilution; assay type: cell-based; settings: S. aureus IVES 1 983

CC1CCN(CC(=O)Nc2cc(N(C)C)c3c(c2O)C(=O)C2=C(O)C4(O)C(=O)C(C(N)=O)=C(O)C(N(C)C)C4CC2C3)CC1.Cl.Cl (stereo not drawn) [G, [7S-(7alpha,10aalpha)]-N-[9-(Aminocarbonyl)4,7-bis(dimethylamino)-5,5a,6,6a,7,10,10a,12-octahydro-1,8,10a,ll-tetrahydroxy-10,12-dioxo-2-naphthacenyl]-4-methyl-l-piperidineacetamide dihydrochloride]
MIC (E. coli UBMS 89-1 Tet M): 0.5 µg/mL
MIC (E. coli PRP1 Tet A): 2 µg/mL
activity against E. coli tetA, E. coli tetC and E. coli tetD [1]: good activity
in vitro activity against tetracycline resistant strains containing tetM and tetB resistance determinants ([1]; S. aureus UBMS 88-5, 90-1, 90-2, E. coli UBMS 89-1, 90-4, 88-1, TN10C tetB): excellent
activity against recently isolated bacteria from clinical sources compared with minocycline ([1]; clinical isolates): superior to that of minocycline
activity against susceptible strains compared with minocycline ([1]; susceptible strains): equallyas effective as minocycline
MIC (E. coli UBMS 88-1 Tet B): 2 µg/mL
MIC [2]: 0.5 µg/mL
MIC [3]: 32 µg/mL
MIC [4]: 0.5 µg/mL
MIC (S. aureus UBMS 90-3): 0.5 µg/mL
MIC [5]: 2 µg/mL
MIC (E. coli UBMS 90-5): 2 µg/mL
MIC (S. aureus UBMS 88-4): 0.5 µg/mL
MIC [6]: 2 µg/mL
MIC (E. coli J3272 Tet sens.): 1 µg/mL
reversibility of binding to the ribosome (the ribosome): bind reversibly
MIC (S. aureus SMITH (MP)): 0.5 µg/mL
MIC (E. coli UBMS 90-4 Tet M): 1 µg/mL
MIC (E. coli J3272 Tet D): 0.25 µg/mL
MIC [7]: 0.5 µg/mL
MIC [8]: 1 µg/mL
% Inhibition Wild Type S30 ([9]; Conc. 0.06 mg/ml): 90%
% Inhibition Wild Type S30 ([9]; Conc. 1.0 mg/ml): 99%
inhibition of protein synthesis occuring on wild type ribosomes ([9]; coupled transcription and translation system): effectively inhibit protein synthesis
ED50 ([10]; administered intravenously): 1 to 2 mg/kg
ED50 ([10]; given orally): 4 to 8 mg/kg
MIC (S. aureus IVES 2943): 0.5 µg/mL
MIC (S. mariescens FPOR 8733): 16 µg/mL
MIC (S. aureus ROSE (MP)): 1 µg/mL
MIC (S. aureus IVES 1 983): 0.5 µg/mL

— patent publication US5328902A, “7-(substituted)-9-[(substituted glycyl)amido]-6-demethyl-6-deoxytetracyclines” (American Cyanamid Co., priority 1992, dated 1994)
